Values quoted from earlier work, collected in patent US11197842B2 (BIOGEN MA INC., priority 2014, dated 2021).
Where a name gives a salt, the structure may show the parent alone.

Conditions: species not stated

COC(=O)/C=C/C(=O)O [MMF, monomethyl fumarate]
half-life of MMF: approximately 1 hour
